Reference: patent publication US12281122B1, “PI3K inhibitors” (Cogent Biosciences, Inc., priority 2023, dated 2025)

Legend:
[1] = tested on: T47D (PI3Kα-H1047R) cell line; assay: HTRF phospho-AKT(S473) cell assay in T47D cells; type: cell-based, human
Summary of the method: (§1)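 T47D (PI3Kα-H1047R; RPMI, 10% FBS, insulin) and SKBR3 (wild-type PI3Kα; McCoy's 5A, 10% FBS) cells treated 2 h at 37 °C with 12-point 1:3 dilutions, top 5 μM and 10 μM respectively, ≤0.5% DMSO. SKBR3 stimulated with 70 ng/ml PDGF-BB for the last 15 min; lysate pAKT(S473) by HTRF, IC50 from curves.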

[2] = tested on: SKBR3 (PI3Kα-Wild Type) cell line; assay: HTRF phospho-AKT(S473) cell assay in SKBR3 cells; type: cell-based, human
Summary of the method: as §1

[3] = Homo sapiens; HTRF phospho-AKT(S473), T47D (PI3Kα-H1047R) cells, 2 hours compound incubation
[4] = Homo sapiens, SK-BR-3; HTRF phospho-AKT(S473), SKBR3 (PI3Kα-Wild Type) cells, 2 hours compound incubation, PDGF-BB stimulated
[5] = Homo sapiens; T47D (PI3Kα-H1047R) cells, HTRF phospho-AKT(S473), 2 hours compound incubation
[6] = Homo sapiens, SK-BR-3; SKBR3 (PI3Kα-Wild Type) cells, HTRF phospho-AKT(S473), 2 hours compound incubation, PDGF-BB stimulated

IC50 [1, 3] [nM]	IC50 [2, 4] [nM]	IC50 [1, 5] [nM]	IC50 [2, 6] [nM]	SMILES
250 to 500	≥ 5000			Cc1cc([C@@H](C)Nc2ccc(Cl)nc2C(=O)NS(C)(=O)=O)c2nc(N3C[C@H]4C[C@@H]3CN4c3nccnc3C)n(C)c(=O)c2c1 [Compound 624, 6-chloro-3-(((R)-1-(3,6-dimethyl-2-((1R,4R)-5-(3-methylpyrazin-2-yl)-2,5-diazabicyclo [2.2.1]heptan-2-yl)-4-oxo-3,4-dihydroquinazolin-8-yl)ethyl)amino)-N-(methylsulfonyl) picolinamide]
250 to 500	≥ 5000			Cc1cc([C@@H](C)Nc2ccc(Cl)nc2C(=O)NS(C)(=O)=O)c2nc(N3CCC(c4nn(C)c5ccccc45)CC3)n(C)c(=O)c2c1 [Compound 675, (R)-6-chloro-3-((1-(3,6-dimethyl-2-(4-(1-methyl-1H-indazol-3-yl)piperidin-1-yl)-4-oxo-3,4-dihydroquinazolin-8-yl)ethyl)amino)-N-(methylsulfonyl) picolinamide]
		< 250	1000 to 5000	Cc1cc([C@@H](C)Nc2ccc(Cl)nc2C(=O)NS(C)(=O)=O)c2nc(N3Cc4cn([C@H](C)C(F)(F)F)nc4C3)n(C)c(=O)c2c1 (relative stereo) [Compound 224, 6-chloro-3-(((R)-1-(3,6-dimethyl-4-oxo-2-(2-((R*)-1,1,1-trifluoropropan-2-yl)-2,6-dihydropyrrolo[3,4-c]pyrazol-5(4H)-yl)-3,4-dihydroquinazolin-8-yl)ethyl)amino)-N-(methylsulfonyl) picolinamide]
250 to 500	≥ 5000			Cc1cc([C@@H](C)Nc2ccc(Cl)nc2C(=O)NS(C)(=O)=O)c2nc(N3CCC(c4c(F)cnn4C(F)F)CC3)n(C)c(=O)c2c1 [Compound 464, (R)-6-chloro-3-((1-(2-(4-(1-(difluoromethyl)-4-fluoro-1H-pyrazol-5-yl)piperidin-1-yl)-3,6-dimethyl-4-oxo-3,4-dihydroquinazolin-8-yl)ethyl)amino)-N-(methylsulfonyl) picolinamide]
250 to 500	≥ 5000			Cc1cc([C@@H](C)Nc2ccc(Cl)nc2C(=O)NS(C)(=O)=O)c2nc(N3CCC(c4ncc(Cl)cn4)CC3)n(C)c(=O)c2c1 [Compound 499, (R)-6-chloro-3-((1-(2-(4-(5-chloropyrimidin-2-yl)piperidin-1-yl)-3,6-dimethyl-4-oxo-3,4-dihydroquinazolin-8-yl)ethyl)amino)-N-(methylsulfonyl) picolinamide]
250 to 500	1000 to 5000			Cc1cc([C@@H](C)Nc2ccc(Cl)nc2C(=O)NS(C)(=O)=O)c2nc(N3CC[C@@H](c4ccnc(C)n4)C3)n(C)c(=O)c2c1 (relative stereo) [Compound 600, 6-chloro-3-(((R)-1-(3,6-dimethyl-2-((R*)-3-(2-methylpyrimidin-4-yl)pyrrolidin-1-yl)-4-oxo-3,4-dihydroquinazolin-8-yl)ethyl)amino)-N-(methylsulfonyl) picolinamide]
250 to 500	1000 to 5000			COc1cnc(C2CCN(c3nc4c([C@@H](C)Nc5ccc(Cl)nc5C(=O)NS(C)(=O)=O)cc(C)cc4c(=O)n3C)CC2)nc1 [Compound 487, (R)-6-chloro-3-((1-(2-(4-(5-methoxypyrimidin-2-yl)piperidin-1-yl)-3,6-dimethyl-4-oxo-3,4-dihydroquinazolin-8-yl)ethyl)amino)-N-(methylsulfonyl) picolinamide]
		< 250	1000 to 5000	Cc1cc([C@@H](C)Nc2ccc(Cl)nc2C(=O)NS(C)(=O)=O)c2nc(N3CCN(c4ccc(C#N)cn4)CC3)n(C)c(=O)c2c1 [Compound 164, (R)-6-chloro-3-((1-(2-(4-(5-cyanopyridin-2-yl)piperazin-1-yl)-3,6-dimethyl-4-oxo-3,4-dihydroquinazolin-8-yl)ethyl)amino)-N-(methylsulfonyl) picolinamide]
		< 250	1000 to 5000	Cc1cc([C@@H](C)Nc2ccc(Cl)nc2C(=O)NS(C)(=O)=O)c2nc(N3CCC(C)(c4ccnn4C)CC3)n(C)c(=O)c2c1 [Compound 302, (R)-6-chloro-3-((1-(3,6-dimethyl-2-(4-methyl-4-(1-methyl-1H-pyrazol-5-yl)piperidin-1-yl)-4-oxo-3,4-dihydroquinazolin-8-yl)ethyl)amino)-N-(methylsulfonyl) picolinamide]
250 to 500	≥ 5000			Cc1cc([C@@H](C)Nc2ccc(Cl)nc2C(=O)NS(C)(=O)=O)c2nc(N3C[C@@H]4C[C@H]3CN4c3ccccn3)n(C)c(=O)c2c1 [Compound 604, 6-chloro-3-(((R)-1-(3,6-dimethyl-4-oxo-2-((1S,4S)-5-(pyridin-2-yl)-2,5-diazabicyclo [2.2.1]heptan-2-yl)-3,4-dihydroquinazolin-8-yl)ethyl)amino)-N-(methylsulfonyl) picolinamide]
		< 250	1000 to 5000	Cc1cc([C@@H](C)Nc2ccc(Cl)nc2C(=O)NS(C)(=O)=O)c2nc(-c3ccc(-c4ccn(C)n4)nc3)n(C)c(=O)c2c1 [Compound 243, (R)-6-chloro-3-((1-(3,6-dimethyl-2-(6-(1-methyl-1H-pyrazol-3-yl)pyridin-3-yl)-4-oxo-3,4-dihydroquinazolin-8-yl)ethyl)amino)-N-(methylsulfonyl) picolinamide]
250 to 500	≥ 5000			Cc1cc([C@@H](C)Nc2ccc(Cl)nc2C(=O)NS(C)(=O)=O)c2nc(N3C[C@H]4CC(n5cc(C)cn5)C[C@@H]4C3)n(C)c(=O)c2c1 (single isomer, unassigned) [Compound 676, 6-chloro-3-(((R)-1-(3,6-dimethyl-2-((3aS*,6aS*)-5-(4-methyl-1H-pyrazol-1-yl)hexahydrocyclopenta [c]pyrrol-2(1H)-yl)-4-oxo-3,4-dihydroquinazolin-8-yl)ethyl)amino)-N-(methylsulfonyl) picolinamide]
		< 250	1000 to 5000	Cc1cc([C@@H](C)Nc2ccc(Cl)nc2C(=O)NS(C)(=O)=O)c2nc(N3CCC[C@H](c4ccc(C)nc4)C3)n(C)c(=O)c2c1 (relative stereo) [Compound 237, 6-chloro-3-(((R)-1-(3,6-dimethyl-2-((R*)-3-(6-methylpyridin-3-yl)piperidin-1-yl)-4-oxo-3,4-dihydroquinazolin-8-yl)ethyl)amino)-N-(methylsulfonyl) picolinamide]
		< 250	1000 to 5000	Cc1cc([C@@H](C)Nc2ccc(Cl)nc2C(=O)NS(C)(=O)=O)c2nc(N3CCN(c4ccc(CC#N)cn4)CC3)n(C)c(=O)c2c1 [Compound 206, (R)-6-chloro-3-((1-(2-(4-(5-(cyanomethyl)pyridin-2-yl)piperazin-1-yl)-3,6-dimethyl-4-oxo-3,4-dihydroquinazolin-8-yl)ethyl)amino)-N-(methylsulfonyl) picolinamide]
		< 250	1000 to 5000	Cc1cc([C@@H](C)Nc2ccc(Cl)nc2C(=O)NS(C)(=O)=O)c2nc(N3C[C@@H]4[C@@H](COc5ccnn5C)[C@@H]4C3)n(C)c(=O)c2c1 [Compound 341, 6-chloro-3-(((R)-1-(3,6-dimethyl-2-((1R,5S,6R)-6-(((1-methyl-1H-pyrazol-5-yl)oxy)methyl)-3-azabicyclo[3.1.0]hexan-3-yl)-4-oxo-3,4-dihydroquinazolin-8-yl)ethyl)amino)-N-(methylsulfonyl) picolinamide]
